Values quoted from earlier work as cited in patent US9951025B2, “Halogenopyrazoles as inhibitors of thrombin” (VERSEON CORPORATION, priority 2013, dated 2018).

Experiments:
lung fibroblasts = details: mouse, in vivo; cited from earlier work
malignant breast tumors = details: cited from earlier work
[1] = after 7 weeks of administration; cited from earlier work
[2] = in vivo; cited from earlier work
lung metastases = details: administered prior to cancer cell inoculation; cited from earlier work
[3] = intrathecal, cited from earlier work

## CCCCCCOC(=O)NC(=N)c1ccc(NCc2nc3cc(C(=O)N(CCC(=O)OCC)c4ccccn4)ccc3n2C)cc1 [dabigatran etexilate]
Lung fibroblasts
  profibrotic events in lung fibroblasts, including production of collagen and connective tissue growth factor: reduced
Malignant breast tumors; mouse, in vivo
  invasion and metastasis of malignant breast tumors: inhibited
  reduction of tumor cells in the blood and liver micrometastases: 50-60%
Malignant breast tumors; treated mice, 4 weeks
  weight loss: no weight loss

## CC(=O)Nc1c(-c2ccccc2)cccc1S(=O)(=O)N[C@@H](CCCc1ccc(N)cn1)C(=O)N1CCC(=C(F)F)CC1 [SSR182289]
[1]
  liver fibrogenesis: decreased liver fibrogenesis significantly

## hirudin
[2]
  disease severity: dramatic improvement
Lung metastases
  number of lung metastases: dramatically reduced
[3]; for 7 days
  pain responses: curbed
[3]
  development of neuropathic pain: prevented
